Source: patent publication US7402684B2, “Biaryl substituted heterocycle inhibitors of LTA4H for treating inflammation” (deCODE genectics ehf., priority 2005, dated 2008)
Counter-ions that a name gives are not always drawn.

Legend:
colitis symptoms = conditions: eight weeks of treatment; cited from earlier work
human whole blood = assay: Ex vivo assay testing inhibitory activity in human whole blood after stimulation with calcium ionophor (LTB4 by ELISA); format: cell-based; conditions: 0.5 h, Ionomycin 20 μM, 30 min at 37° C., read-out: hWBIC50
Description: (2) Ex vivo assay testing inhibitory activity in human whole blood after stimulation with calcium ionophor.
Human blood was collected in heparin-containing Vacutainer tubes. […] Then 4 μl of a series of compound dilutions (in DMSO) were added, followed by a 15 min incubation at 37° C. with gentle shaking. After that, blood samples were stimulated by adding Ionomycin (Calbiochem) to a final concentration of 20 μM. After another incubation at 37° C. for 30 min, samples were centrifuged for 5 min at 1800 g and 4° C. Supernatants were taken and LTB4 concentrations were determined using a commercially available enzyme-linked immunosobentassay (R&D Systems, Minneapolis, Minn.) according to the manufacturer's instructions.

[1] = molecular target: T1, recombinant human LTA4 hydrolase (Homo sapiens, UniProt P09960); assay: In vitro assay testing inhibitory activity against purified recombinant human LTA4 hydrolase (LTB4 formed measured by LC-MS/MS); format: biochemical; conditions: purified recombinant human LTA4 hydrolase 200 nM, LTA4 2 μM, 120 sec at room temperature; read-out: AvgIC50
T1 construct: A human LTA4 hydrolase full-length cDNA clone (NM_000895) was purchased from OriGene Technologies; made in house; host or cells: Escherichia coli BL21-AI
T1 sequence (P09960 1-611): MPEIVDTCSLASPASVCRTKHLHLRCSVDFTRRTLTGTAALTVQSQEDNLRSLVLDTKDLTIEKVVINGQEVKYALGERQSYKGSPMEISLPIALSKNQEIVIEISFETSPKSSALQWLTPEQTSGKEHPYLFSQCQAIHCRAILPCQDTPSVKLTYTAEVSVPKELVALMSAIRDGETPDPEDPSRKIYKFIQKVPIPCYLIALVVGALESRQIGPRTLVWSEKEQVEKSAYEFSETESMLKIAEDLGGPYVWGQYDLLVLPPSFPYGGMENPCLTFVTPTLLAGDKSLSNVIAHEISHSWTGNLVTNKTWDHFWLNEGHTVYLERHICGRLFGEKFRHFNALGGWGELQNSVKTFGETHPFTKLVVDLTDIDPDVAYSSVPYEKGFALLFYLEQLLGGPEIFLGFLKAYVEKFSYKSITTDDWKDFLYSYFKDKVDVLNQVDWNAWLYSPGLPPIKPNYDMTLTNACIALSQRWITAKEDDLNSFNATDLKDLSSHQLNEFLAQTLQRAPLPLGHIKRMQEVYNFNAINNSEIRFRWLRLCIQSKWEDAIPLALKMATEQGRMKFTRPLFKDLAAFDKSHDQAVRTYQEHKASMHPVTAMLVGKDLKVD
Description: The compounds of the invention were incubated in a series of dilutions with 200 nM of recombinant enzyme in assay buffer (100 mM Tris-HCl, 100 mM NaCl, 5 mg/ml fatty-acid free BSA, 10% DMSO, pH 8.0) for 10 min at room temperature to allow binding between LTA4 hydrolase and the inhibitors. LTA4 was prepared by alkaline hydrolysis of LTA4 methyl ester (Biomol, Plymouth Meeting, Pa., or Cayman Chemicals, Ann Arbor, Mich.). A solution of 10 μg of the ester was dried under a nitrogen stream and redissolved in 60 μl of a solution of 80% acetone and 20% 0.25 M NaOH. After incubation for 40 min at room temperature the resulting approximately 500 mM tock of LTA4 was kept at −80° C. for no more than a few days prior to use.
Immediately before the assay, LTA4 was diluted to a concentration of 10 μM in assay buffer (without DMSO) and added to the reaction mixture to a final concentration of 2 μM to initiate the enzyme reaction. […] The samples were then kept at 4° C. overnight to complete protein precipitation and centrifuged for 15 min at 1800 g.

Row | IC50 (human whole blood) | IC50 [1] | SMILES | colitis symptoms in a primate model (colitis symptoms)
1 |  |  | CN(CCCOc1ccc(Cc2ccccc2)cc1)CCC(=O)O.Cl [SC57461] | significantly improved colitis symptoms
2 | < 5 µM | < 5 µM | c1csc(-c2ccc(Cc3ccc(OC[C@@H]4CCCN4)cc3)cc2)c1 [Example 117, (S)-2-[4-(2-thiophen-benzyl)-phenoxymethyl]-pyrrolidine hydrogen chloride salt] | 
3 |  | < 5 µM | Cc1ccc(Oc2ccc(OC[C@@H]3CCCN3CCCC(=O)O)cc2)cc1 [Example 37, 4-[(S)-2-(4-p-Tolyloxy-phenoxymethyl)-pyrrolidin-1-yl]-butylic acid HCl] | 
4 |  | 5 to 20 µM | O=C(O)CN1CCC[C@H]1COc1ccc(Cc2ccccc2)cc1 [Example 35, [(S)-2-(4-Benzyl-phenoxymethyl)-pyrrolidin-1-yl]-acetic acid TFA salt] | 
